System: Npc1^−/− (BALB/cNctr-Npc1^m1N/J) mouse
Assay: In vivo mouse study in Npc1-/- mouse model of NPC (coat, weight, CatWalk gait, open field motor function, lifespan)
Method: Separate groups of Npc1^-/- and Npc1^+/+ mice were left untreated, as controls. […] Animals were weighed twice a week. Weights were averaged (mean) across all mice in each group and compared. Gait analysis was performed on mice at eight weeks of age using a CatWalk® 15.0 system according to manufacturer's instructions (Noldus, Nottingham, UK). Five runs were recorded per animal. CatWalk® parameters measured were: • 1. Stand Mean: average duration (s) of paws in contact with glass plate; • 2. Step Cycle: duration (s) between two consecutive contacts of the same paw; • 3. Duty Cycle: percentage of time paws in contact with plate compared with time to complete a step cycle; • 4. Step Sequence (AB): percentage of time spent walking in LF-RH-RF-LH alternating pattern (LF: left front; RH: right hind; RF: right front; LH left hind); • 5. Cadence: step per seconds in a trial; • 6. Diagonal Support: percentage of time with simultaneous contact of diagonal paws with the glass plate (RF&LH or RH&LF). Motor Function Analysis Motor function analysis was performed on mice at eight and nine weeks of age using an Open Field Activity Monitor according to manufacturer's instructions (Linton Instruments, Amlogger Software). Each mouse was placed in a plastic cage with bedding and analysed for five minutes. Rears were counted manually. Motor function parameters measured were: • 1. Centre Rearing: mice rearing on hind legs unsupported; • 2. Rearing: mice rearing on hind legs with and without the support of cage walls; • 3. Activity: regular movement of the animal including walks; • 4. Front to Back (FR) count: movement of the animal from front to back of the cage; • 5. Active Time: duration (s/min) of activeness regardless of movement; • 6. Mobile Time: duration (s/min) of mobility; • 7. Rearing Time: duration of any rearing.

## CC(=O)NC(CC(C)C)C(=O)O (racemic) [acetyl-DL-leucine]
Npc1-/- mice treated from weaning
  Delay until display of disease symptoms versus untreated Npc1-/- mice: two
Npc1-/- mice, 0.1 g/kg from weaning
  Delay of weight loss symptoms compared to the untreated group: two
Npc1-/- mice, 0.1 g/kg from weaning, eight weeks of age
  Gait properties (CatWalk) compared to untreated littermates: significantly improved gait
Npc1-/- mice, 0.1 g/kg from weaning, nine weeks of age
  Motor function properties (Open Field Activity Monitor) compared to untreated littermates: significantly improved motor function
Npc1-/- mice, 0.1 g/kg in chow from weaning, nine weeks of age
  Coat condition: smooth and glossy coat
Npc1-/- mouse, 0.1 g/kg from 3 weeks of age
  Lifespan: small but statistically significant increase in lifespan
